Data set [1] in a line: 1-octanol/water partition coefficient (Poct) of tripeptides.
Experimental: The 1-octanol/water partition coefficients (Poct) of the two tripeptides were evaluated.
To 20 mg of peptide 4 or 5 were added 2 mL of water and 2 mL of 1-octanol. The resulting mixture was shaken with a mixer for 10 min. After the aqueous and the organic phases were fully separated, 50 μL of solution was taken out from each phase for HPLC analysis. To a mixture of 200 μL aqueous solution and 200 μL 1-octanol solution were added 1.8 mL of water and 1.8 mL of 1-octanol. The resulting mixture was shaken with a mixer for 10 min. After the phases were fully separated, 50 μL of solution was taken out from each phase for reversed-phases HPLC analysis.
For data set [2] the following is noted: cited from earlier work.

In turn, `NCC(COC(C(F)(F)F)(C(F)(F)F)C(F)(F)F)(COC(C(F)(F)F)(C(F)(F)F)C(F)(F)F)C(=O)O` yielded a melting point of 182 to 184 °C. Still for that read-out and setting: for `O=C(NCC(COC(C(F)(F)F)(C(F)(F)F)C(F)(F)F)(COC(C(F)(F)F)(C(F)(F)F)C(F)(F)F)C(=O)O)OCC1c2ccccc2-c2ccccc21` the value was 104 to 105 °C; for `CC(C)(C)OC(=O)NCC(COC(C(F)(F)F)(C(F)(F)F)C(F)(F)F)(COC(C(F)(F)F)(C(F)(F)F)C(F)(F)F)C(=O)O`, 128 to 130 °C. Turning to `NC(=O)CNC(=O)C(CNC(=O)CNC=O)(COC(C(F)(F)F)(C(F)(F)F)C(F)(F)F)COC(C(F)(F)F)(C(F)(F)F)C(F)(F)F` [tripeptide 4, Formyl-Gly-βFa-Gly-Amide], in data set [1], the logP at 10 min was above 1.

On to octreotide, for which, in data set [2], the “in vivo half-life (t1/2)” value is 2 h.

The values are drawn from US8052961B2, “Highly fluorinated β-amino acids and methods of making and using same” (University of Utah Foundation, priority 2006, dated 2011).
